In US20050009809A1, “Acridine derivatives and their use as medicaments” (priority 2003, published 2005):
≈ marks a conversion by molar mass, not a printed value. Where two headings read alike, the source gives them in different places.

Legend:
[1] = system: human cervical carcinoma cell line KB/HeLa; experiment: XTT proliferation assay, KB/HeLa; assay type: cell-based; conditions: Homo sapiens, read-out: XTT proliferation assay, EC50, KB/Hela
Description: (§1) The substances according to the invention were investigated for their antiproliferative activity in a proliferation test on established tumor cell lines. The test used determines the cellular dehydrogenase activity and makes possible a determination of the cell vitality and indirectly the cell count. The cell lines used are the human cervical carcinoma cell line KB/HeLa (ATCC CCL17), the ovarian adenocarcinoma cell line SKOV-3 (ATCC HTB77), the human glioblastoma cell line […] (NCI 503138) and the lung carcinoma cell line NCI-H460 (NCI 503473).
(§2) The adherently growing tumor cell lines KB/HeLa, SKOV-3, SF-268 and NCI-H460 were cultured under standard conditions in a fumigation incubator at 37° C., 5% CO2 and 95% atmospheric humidity. On experimental day 1, the cells are detached using trypsin/EDTA and pelleted by centrifugation. Subsequently, the cell pellet is resuspended in the respective culture medium at the corresponding cell count and reacted in a 96-well microtiter plate. The plates are then cultured overnight in the fumigation incubator. The test substances are prepared as 1 mg/ml stock solutions in DMSO and diluted to the appropriate concentrations on experimental day 2 using culture medium. The substances in culture medium are then added to the cells and incubated in the fumigation incubator for 45 h. As a control, cells which are not treated with test substance are used. For the XTT assay, 1 mg/ml of XTT (sodium 3′-[1-(phenylaminocarbonyl)-3,4-tetrazolium]-bis(4-methoxy-6-nitro)benzenesulfonic acid) is dissolved in RPMI-1640 medium without Phenol Red. Additionally, a 0.383 mg/ml PMS (N-methyldibenzopyrazine methylsulfate) solution in phosphate-buffered saline solution (PBS) is prepared. On experimental day 4, 75 μl/well of XTT-PMS mixture is pipetted onto the cell plates which in the meantime have been incubated with the test substances for 45 h. For this, shortly before use, the XTT solution is mixed with the PMS solution in the ratio 50:1 (vol:vol). The cell plates are then incubated in the fumigation incubator for a further 3 h and the optical density (OD490 nm) is determined in a photometer. By means of the OD490 nm determined, the percentage inhibition is calculated relative to the control and plotted semilogarithmically in the form of a concentration-action curve. The EC50 is calculated by means of a regression analysis from the concentration-action curve using the program Graphpad Prism.

[2] = system: ovarian adenocarcinoma cell line SKOV-3; experiment: XTT proliferation assay, SKOV-3; assay type: cell-based, human; conditions: Homo sapiens, read-out: XTT proliferation assay, EC50, SKOV3
Description: as §1, §2

[3] = system: human glioblastoma cell line SF-268; experiment: XTT proliferation assay, SF-268; assay type: cell-based; conditions: Homo sapiens, read-out: XTT proliferation assay, EC50, SF-268
Description: as §1, §2

[4] = system: lung carcinoma cell line NCI-H460; experiment: XTT proliferation assay, NCI-H460; assay type: cell-based, human; conditions: Homo sapiens, read-out: XTT proliferation assay, EC50, NCI-H460
Description: as §1, §2

physchem = conditions: water, thermodynamic from solid
Procedure: (§3) The saturation solubility in water is determined as described below. For incipient dissolution of the substances and to improve wetting of the samples, at most 1% of DMSO is added. To check the content, an HPLC-UV method was used.

[5] = system: bovine tubulin with 30% associated proteins (MAPs); experiment: Tubulin polymerization assay; assay type: biochemical; conditions: tubulin with 30% MAPs, average of two independent experiments
Procedure: The compounds according to the invention were tested for inhibition of the polymerization of bovine tubulin in an in-vitro test. In this test, tubulin purified by cycles of polymerization and depolymerization is employed, which is polymerized by addition of GTP and warming. In Table 2, the inhibition or EC50 values of the inhibition of polymerization of tubulin with 30% associated proteins (MAPs) are indicated.
The assay is carried out based on the method of Bollag et al. Lyophilized bovine tubulin (cytoskeleton, ML113 tubulin 30% MAPs) is dissolved in a concentration of 2 mg/ml (ML113 in 80 mM PIPES, 0.5 mM EGTA, 2 mM MgCl2, pH 6.9, 1 mM GTP) or 5 mg/ml (TL238 in 80 mM PIPES, 1 mM EGTA, 0.5 mM MgCl2, 20% (v:v) glycerol pH 6.9, 1 mM GTP). The test substances are diluted in 10% DMSO (v:v) and 5 μl of the dilutions are transferred to a 96-well microtiter plate (Nunc, half area plate). After addition of 45 μl of the tubulin solution, the polymerization is determined at 340 nm in a Spectramax 190 microtiter plate reader (Molecular Devices) by means of a kinetics program at 30 sec intervals over a period of 20 min. The resulting area under curve values are used for the calculation of the inhibition with respect to the untreated control. The controls are untreated cells (±induction). Induction was carried out using 3 μM of muristerone A. On day 1, the cells are sown (±muristerone A) and incubated at 37° C. for 24 h. On day 2, the test substance is added (control DMSO) and incubation at 37° C. is continued further 45 h, after which a standard XTT assay is carried out.

[6] = Saturation solubility in water; conditions: versus comparison substances of WO0208194
Procedure: as §3

[7] = SK-OV-3, SKOV-3 cells, 45 h incubation
[8] = NCI-H460 cells, 45 h incubation

SMILES | EC50 ([1]; HeLa, 45 h) | EC50 ([2]; SK-OV-3, 45 h) | EC50 ([3]; SF-268, 45 h) | EC50 ([4]; NCI-H460, 45 h) | solubility (physchem) | EC50 ([1]; KB/HeLa cells, 45 h incubation) | EC50 [2, 7] | EC50 ([3]; SF-268 cells, 45 h incubation) | EC50 [4, 8] | Inhibition of tubulin polymerization in [% INH at 10 μg/ml] using 30% MAPs [5] | Inhibition of tubulin polymerization using 30% MAPs, EC50 [5] | melting point | Water solubility compared to the comparison substances [6]
O=C(c1c2ccccc2nc2ccccc12)N1CCN(c2cccc(OP(=O)([O-])[O-])c2)CC1.[Na+].[Na+] [Compound 33, Mono-{3-[4-(acridin-9-ylcarbonyl)piperazin-1-yl]phenyl}phosphate disodium salt] | 0.013 µg/mL | 0.038 µg/mL | 0.057 µg/mL | 0.067 µg/mL | 9090 µg/mL | – | – | – | – | – | – | – | –
CC(=O)Oc1cccc(N2CCN(C(=O)c3c4ccccc4nc4ccccc34)CC2)c1 [Compound 3, 3-[4-(Acridin-9-ylcarbonyl)piperazin-1-yl]phenyl acetate] | – | – | – | – | – | 0.013 µg/mL | 0.011 µg/mL | 0.018 µg/mL | 0.019 µg/mL | 87 % INH | 1.35 µg/mL | – | –
COC(=O)Oc1cccc(N2CCN(C(=O)c3c4ccccc4nc4ccccc34)CC2)c1 [Compound 5, 3-[4-(Acridin-9-ylcarbonyl)piperazin-1-yl]phenyl methyl carbonate] | – | – | – | – | – | 0.017 µg/mL (≈ 0.0385 µM) | 0.015 µg/mL (≈ 0.034 µM) | 0.024 µg/mL (≈ 0.0544 µM) | 0.021 µg/mL (≈ 0.0476 µM) | 94.3 % INH | 1.08 µg/mL | – | –
CC1(C)OCC(COC(=O)Oc2cccc(N3CCN(C(=O)c4c5ccccc5nc5ccccc45)CC3)c2)O1 (centres unmarked) [Compound 16, 3-[4-(Acridin-9-ylcarbonyl)piperazin-1-yl]phenyl 2,2-dimethyl-[1,3]-dioxolan-4-ylmethyl carbonate] | – | – | – | – | – | 0.033 µg/mL (≈ 0.0609 µM) | 0.026 µg/mL (≈ 0.048 µM) | 0.043 µg/mL (≈ 0.0794 µM) | 0.042 µg/mL (≈ 0.0775 µM) | – | – | 107 to 108 °C | –
O=C(OCCCl)Oc1cccc(N2CCN(C(=O)c3c4ccccc4nc4ccccc34)CC2)c1 [Compound 6, 3-[4-(Acridin-9-ylcarbonyl)piperazin-1-yl]phenyl 2-chloroethyl carbonate] | – | – | – | – | – | 0.021 µg/mL (≈ 0.0429 µM) | 0.019 µg/mL (≈ 0.0388 µM) | 0.032 µg/mL (≈ 0.0653 µM) | 0.029 µg/mL (≈ 0.0592 µM) | 70 % INH | – | 162 to 163 °C | –
O=C(c1c2ccccc2nc2ccc(O)cc12)N1CCN(c2cccc(O)c2)CC1 [Compound 38, (2-Hydroxyacridin-9-yl)-[4-(3-hydroxyphenyl)piperazin-1-yl]methanone] | – | – | – | – | – | 0.125 µg/mL (≈ 0.313 µM) | 0.095 µg/mL (≈ 0.238 µM) | 0.137 µg/mL (≈ 0.343 µM) | 0.214 µg/mL (≈ 0.536 µM) | – | 4.57 µg/mL | – | –
O=C(NCCO)Oc1cccc(N2CCN(C(=O)c3c4ccccc4nc4ccccc34)CC2)c1 [Compound 7, 3-[4-(Acridin-9-ylcarbonyl)piperazin-1-yl]phenyl (2-hydroxyethyl)carbamate] | – | – | – | – | 108 µg/mL (≈ 230 µM) | 0.029 µg/mL (≈ 0.0616 µM) | 0.019 µg/mL (≈ 0.0404 µM) | 0.031 µg/mL (≈ 0.0659 µM) | 0.036 µg/mL (≈ 0.0765 µM) | – | – | – | greatly improved water solubilities
CS(=O)(=O)Oc1cccc(N2CCN(C(=O)c3c4ccccc4nc4ccccc34)CC2)c1 [Compound 15, 3-[4-(Acridin-9-ylcarbonyl)piperazin-1-yl]phenyl methanesulfonate] | – | – | – | – | – | 0.078 µg/mL | 0.048 µg/mL | 0.069 µg/mL | 0.079 µg/mL | 94.8 % INH | 4.82 µg/mL | – | –
COc1cccc(N2CCN(C(=O)c3c4ccccc4nc4ccc(O)cc34)CC2)c1 [Compound 37, (2-Hydroxyacridin-9-yl)-[4-(3-methoxyphenyl)piperazin-1-yl]methanone] | – | – | – | – | – | 0.064 µg/mL (≈ 0.155 µM) | 0.042 µg/mL (≈ 0.102 µM) | 0.076 µg/mL (≈ 0.184 µM) | 0.067 µg/mL (≈ 0.162 µM) | – | 2.06 µg/mL | – | –
